# Assay results published in patent US20160193188A1, “METHODS AND COMPOSITIONS FOR INCREASING THE EFFECTIVENESS OF ANTIVIRAL AGENTS” (ANTIVIRUS THERAPEUTICS, priority 2013, published 2016).
# Where two headings read alike, the source gives them in different places.
# How the values were obtained:
# [1] = Study 843-203: safety and tolerability in healthy adults; format: in vivo, human; details: healthy volunteers
# [2] = 25° C.; cited from earlier work
# [3] = 12 mg per day nasal spray; cited from earlier work
# [4] = tested on: human respiratory picornavirus; details: oral dosage form; cited from earlier work
# CYP 3A = details: oral delivery, 200-400 mg dose level, cited from earlier work
# rhinovirus type 39 = experiment: Study 843-203: experimentally induced human rhinovirus respiratory infection in healthy adults, antiviral and clinical efficacy; format: in vivo
# Method: Subjects were confined to a clinical facility with on-site medical surveillance from Day −2 through Day 5; outpatient follow-up visits were conducted on Days 5-7. On Day −1, 24 hours before administration of the first dose of study drug, each subject received an intranasal inoculation of 100-300 tissue culture infective dose 50% (TCID50) rhinovirus type 39. Nasal wash specimens were collected pre-inoculation and once or twice daily at predetermined time points on Days 1-7 for virologic determinations. Nasal mucus weights were determined daily through Day 4. The presence and severity of clinical symptoms were assessed throughout the study period. […] One subject in the pleconaril BID nasal spray group had study drug interrupted temporarily due to “blood in nasal mucus” observed on Day 1; this event was considered mild and resolved without treatment, and the subject completed BID dosing on Days 2 and 3.
# Primary Endpoint: Log-transformed virus titers from serial nasal wash samples in Study 843-203 are shown in FIG. 2 for virology evaluable subjects (i.e., those subjects with a pre-inoculation serum neutralizing antibody titer to rhinovirus type 39 ˜1:2 and reverse transcriptase polymerase chain reaction [RT-PCR] and culture negative nasal wash sample and at least one post baseline nasal wash sample that was RT-PCR or culture positive). At the time of maximum viral titers (Day 2 AM) in the combined vehicle groups, median viral titers in each pleconaril group were 0.78-1.26 log lower than vehicle groups, and viral titers in the combined pleconaril BID/TID groups were 1 log lower than the vehicle groups.
structure (smiles),measurement,setting,value
"Cc1cc(CCCOc2c(C)cc(-c3noc(C(F)(F)F)n3)cc2C)on1 [pleconaril, 3-{3,5-dimethyl-4-[3-(3-methylisoxazol-5-yl)propoxy]phenyl}-5-(trifluoromethyl)-1,2,4-oxadiazole]",serious adverse events,[1],No serious adverse events
same,solubility in water,[2],< 0.02 µg/mL
same,clinical/antiviral effect compared with 400 mg oral dose,[3],roughly similar clinical/antiviral effect
same,systemic exposure,[3],without any significant systemic exposure
same,activity against human respiratory picornavirus,[4],broad activity
same,CYP 3A / CYP 3A4 induction,CYP 3A,inducer of CYP 3A4
same,CYP 3A / CYP 3A4 induction,CYP 3A; listed as Pleconaril,induction of CYP 3A
same,"repeated measures analysis of viral titers, between-group comparison",rhinovirus type 39; Day 1 PM to Day 7,not significant
same,median log-transformed viral titers vs vehicle groups,"rhinovirus type 39; each pleconaril treatment group (intranasal and oral), initiation of study drug through Day 3 AM",lower than the vehicle groups at all measured time points
same,nasal mucus weights vs combined vehicle controls,rhinovirus type 39; nasal and oral pleconaril groups,significantly lower nasal mucus weights
same,benefit vs. vehicle,"rhinovirus type 39; nasal and oral pleconaril groups, through day 3 post infection",showed benefit vs. vehicle
same,effect on common cold symptom duration and viral titers,"rhinovirus type 39; nasal spray BID, nasal spray TID or oral",effective in reducing common cold symptom duration and viral titers
same,median viral titers lower than vehicle groups,"rhinovirus type 39; nasal wash, Day 2 AM (time of maximum viral titers), each pleconaril group",0.78-1.26 log
same,viral titers lower than vehicle groups,"rhinovirus type 39; nasal wash, Day 2 AM, combined pleconaril BID/TID groups",1 log
